Assay results published in patent publication US11814652B2, “Pluripotent stem cell differentiation-promoting agent” (Oriental Yeast Co., Ltd., priority 2018, dated 2023).

Columns and labels:
[1] = test system: human iPS cell strain 201B7; assay: RT-PCR of marker expression in iPS cells cultured in E6 differentiation-inducing medium with β-NMN (Example 1); assay type: cell-based; details: 3rd and 7th day after seeding, β-NMN 0.25 or 1 mM in E6 medium, compared to cells cultured in the absence of β-NMN
Method: The effect of β-NMN on the differentiation of three germ layers of the iPS cells was examined. As the iPS cells, the human iPS cell strain 201B7 was used. A U-bottom shape 96-well plate “Nunclon Sphera 96 U-well plate” (manufactured by Thermo Fisher Scientific) was seeded with iPS cells at 10,000 cells/well, and cultured in an E6 culture medium (manufactured by Gibco) as a differentiation-inducing culture medium adjusted to have a final concentration of β-NMN of 0, 0.25 or 1 mM, and a final concentration of Rock inhibitor of 10 μM for 1 day. The Rock inhibitor was added to suppress Rho-dependent apoptosis. On the 1st and 5th days after seeding, the culture medium was replaced with a culture medium obtained by removing the Rock inhibitor from the culture medium at the time of seeding. Cells on the 3rd and 7th days after seeding were sampled and subjected to RT-PCR to investigate the expression levels of undifferentiated markers (Nanog, Sox2, Oct3/4, Lin28a, Klf4), endoderm markers (Sox17, AFP), mesoderm markers (MSX1, Brachyury) and ectodermal markers (PAX6). […] The expression level of each marker was evaluated by PCR using the obtained cDNA. […]

iPS cells 201B7 strain [2] = assay: Flow cytometry of Nestin/Pax6 ectodermal markers, differentiation-induction in medium with β-NMN (Example 2); assay type: cell-based, human; details: ectodermal differentiation-inducing medium with β-NMN 0.1, 0.25 or 1 mM; 2nd, 4th, 7th day; versus absence of β-NMN
Method: The effect of β-NMN on the ectodermal differentiation-induction of the iPS cells was examined. The 201B7 strain was used as the iPS cells. The iPS cells were seeded in a 12-well plate coated with Matrigel (manufactured by Corning Incorporated) according to the manufacturer's protocol at 8×10^5 cells/well. The cells in the 12-well plate were cultured in a culture medium prepared by adjusting an ectodermal differentiation-inducing culture medium of “STEMdiff Trilineage Differentiation kit” (manufactured by STEMCELL Technologies) to have a final concentration of β-NMN of 0, 0.1, 0.25, or 1 mM, and a final concentration of Rock inhibitor of 10 μM for 1 day. From the 1st day after seeding, the medium was replaced every day with a culture medium obtained by removing the Rock inhibitor from the culture medium at the time of seeding. […] Then, the cells were stained with a fluorescence-labeled anti-Nestin antibody (manufactured by Biolegend, clone 10C2) and a fluorescence-labeled anti-Pax6 antibody (manufactured by Becton, Dickinson and Company, clone O18-1330). After washing the stained cells, a flow cytometer “FACScaliber” (manufactured by Becton, Dickinson and Company) was used to analyze the fluorescence intensity of the anti-Nestin antibody and the fluorescence intensity of the anti-Pax6 antibody in each sample. […]

iPS cells 201B7 strain [3] = assay: Cell number during mesodermal differentiation-induction in medium with β-NMN (Example 3); assay type: cell-based, human; details: mesodermal differentiation-inducing medium containing β-NMN 0.1, 0.25 or 1 mM; 7th day after seeding; versus medium not containing β-NMN
Method: The effects of β-NMN on the mesodermal differentiation-induction of iPS cells were examined. The 201B7 strain was used as the iPS cells. The iPS cells were seeded in a 24-well plate coated with Matrigel (manufactured by Corning Incorporated) according to the manufacturer's protocol at 1×10^5 cells/well. The cells in the 24-well plate were cultured in a culture medium for iPS cells adjusted to have a final concentration of Rock inhibitor of 10 μM for 1 day. From the 1st day after seeding, the culture medium was replaced with a culture medium prepared by adjusting a mesoderm differentiation-inducing culture medium of “STEMdiff Trilineage Differentiation kit” (manufactured by STEMCELL Technologies) to have a final concentration of β-NMN of 0, 0.1, 0.25, or 1 mM for 1 day. The culture medium was replaced with a culture medium prepared by adjusting a mesodermal differentiation-inducing culture medium to have final concentrations of both β-NMN and Rock inhibitor of 10 μM only on the 1st day after seeding. Cells of the 7th day after seeding were sampled and the cell numbers were counted. As a result, the number of the cells cultured in the mesodermal differentiation-inducing culture medium containing β-NMN was larger than the number of the cells cultured in the medium not containing β-NMN.

iPS cells 201B7 strain [4] = assay: Flow cytometry of Brachyury/CD56 after mesodermal differentiation-induction following undifferentiated culture with β-NMN (Example 6); assay type: cell-based, human; details: β-NMN 0.25 or 1 mM before mesodermal differentiation-induction; 5th or 7th day; versus absence of β-NMN
Method: The effects of culturing in the presence of β-NMN before induction of differentiation on the mesodermal differentiation-induction of iPS cells was examined. As the iPS cells, the 201B7 strain was used. The iPS cells were cultured in a culture dish in the same manner as in Example 5, and when the confluent reached 70 to 80%, the iPS cells were detached from the culture dish and collected. The collected iPS cells were seeded at 1×10^5 cells/well in a 24-well plate coated with Matrigel (manufactured by Corning Incorporated) according to the manufacturer's protocol. The cells in the 24-well plate were cultured for 1 day in a culture medium prepared by removing β-NMN from the culture medium when culturing in the culture dish and adjusting to have a final concentration of Rock inhibitor of 10 μM. From the 1st day after seeding, the medium was replaced every day with a culture medium for mesodermal differentiation-induction of “STEMdiff Trilineage Differentiation kit” (manufactured by STEMCELL Technologies). In the same manner as in Example 3, the cells sampled on the 5th or 7th day after seeding were stained with a fluorescently labeled anti-Brachyury antibody and a fluorescently labeled anti-CD56 antibody, and a flow cytometer was used to analyze the fluorescence intensity of the anti-Brachyury antibody and the fluorescence intensity of the anti-CD56 antibody in each sample. […]

NC(=O)c1ccc[n+]([C@@H]2O[C@H](COP(=O)([O-])O)[C@@H](O)[C@H]2O)c1 [β-NMN, β-nicotinamide mononucleotide]
expression level of each undifferentiated marker (Nanog, Sox2, Oct3/4, Lin28a, Klf4) [1]: decreased
expression level of the differentiated marker (Sox17, AFP, MSX1, Brachyury, PAX6) [1]: increased
ratio of Nestin-positive Pax6-positive cells (iPS cells 201B7 strain [2]): higher
number of the cells (iPS cells 201B7 strain [3]): larger
ratio of Brachyury-positive CD56-positive cells (iPS cells 201B7 strain [4]): no clear difference
